Data on 15 compounds can be found in patent publication US8309554B2 (priority 2008, dated 2012).

One series deals with H460 spheroid. The experiment in a line: cells. The settings on record: Homo sapiens. Format: cell-based.
The test system of a further series is H460. Put plainly: cells. Type of series: cell-based. The settings on record: for IC50: Homo sapiens.
In a further series the test system is HT29. Put plainly: cells. The settings on record: for IC50: Homo sapiens, HT-29, 2 h. Type of series: cell-based.
A short description of another series: in vivo. The settings on record: mouse, ip.
Series [1] deals with H460 non small cell lung xenograft. The settings on record: mouse, in vivo.
Series [2] relates to HT 1080 sarcoma xenograft. The settings on record: mouse, in vivo.
[3] abbreviates: NCI-H460, read-out: 2 h Air H460 spheroid IC50.
Setting [4] is: NCI-H460, read-out: 2 h N2 H460 spheroid IC50.
Setting [5] is: NCI-H460, read-out: 2 h Air H460 monolayer IC50.
The mark [6] stands for this setting: NCI-H460, read-out: 2 h N2 H460 monolayer IC50.
Where [7] appears, read: NCI-H460, 2 h, read-out: 2 hr Air H460 IC50.
The mark [8] stands for this setting: NCI-H460, 2 h, read-out: 2 hr N2 H460 IC50.

SMILES strings stand for the structures. Values joined by “and” are separate entries in the source; they are usually repeats but may differ in a detail not shown here. Equal entries are not always repeated. Where two headings read alike, the source gives them in different places.

Turning to `CN(c1ccc(N(CCCl)CCCl)cc1)S(=O)(=O)Cn1ccnc1[N+](=O)[O-]` [TH-1107], the IC50 is < 690 nM in the series with H460 spheroid (setting [3]), < 690 nM in the series with H460 spheroid (setting [4]), 113 µM in the series with H460 (setting [5]) and 7.9 µM in the series on H460 (setting [6]).

As to `Cc1cc(OS(=O)(=O)C(C)c2ccsc2[N+](=O)[O-])ccc1N(CCCl)CCCl` (stereo not drawn) [TH-1120], the IC50 with H460 spheroid (setting [3]) was < 80 nM; in the series on H460 spheroid (setting [4]), < 80 nM; in the series on H460 (setting [5]) it was 2.4 µM; in the series with H460 (setting [6]) it was 0.3 µM.

Regarding `CN(c1ccc(N(CCCl)CCCl)cc1)S(=O)(=O)C(C)(C)c1cnc([N+](=O)[O-])n1C` [TH-1126], the 50% inhibitory concentration (IC50) was < 690 nM with H460 spheroid (setting [3]), < 690 nM with H460 spheroid (setting [4]), 45 µM in the series on H460 (setting [5]) and 7.1 µM in the series on H460 (setting [6]).

`CC(n1ccnc1[N+](=O)[O-])S(=O)(=O)N(C)c1ccc(N(CCCl)CCCl)cc1` (stereo not drawn) [TH-1127]: the IC50 in the series on H460 spheroid (setting [3]) is < 690 nM; in the series on H460 spheroid (setting [4]) it was < 690 nM; with H460 (setting [5]), 37 µM; with H460 (setting [6]), 3.9 µM.

As to `CS(=O)(=O)CCC(c1ccsc1[N+](=O)[O-])S(=O)(=O)Oc1ccc(N(CCCl)CCCl)cc1` (stereo not drawn) [TH-1266, 3-(4-(N,N-bis-(2-Chloroethyl)amino)phenoxysulfonyl-(2-methylsulfonyl)ethyl)methyl-2-nitrothiophene], in the series on H460, the “H460 HCR: Air/N2” value amounted to 183. Also, the IC50 in the series on H460 (setting [7]) was 55 µM; in the series on H460 (setting [8]), 0.3 µM; in the series on HT29 (read-out: 2 hr Air HT29 IC50), > 1000 µM; with HT29 (read-out: 2 hr N2 HT29 IC50), 34 µM. In addition, the “HT29 HCR: Air/N2” value in the series on HT29 is >29. In addition, in the series “in vivo”, the MTD was 40 mg/kg. Besides, the “tumor growth delay to 500 mm^3” value in series [1] was 25 days and 21 days.

For `O=[N+]([O-])c1sccc1C(Cc1ccc(O)nc1)S(=O)(=O)Oc1ccc(N(CCCl)CCCl)cc1` (stereo not drawn) [TH-1305, 3-(4-(N,N-bis-(2-Chloroethyl)amino)phenoxysulfonyl-(2-hydroxypyridin-5-yl-methyl))methyl-2-nitrothiophene], the “H460 HCR: Air/N2” value with H460 turned out to be 67. The IC50 was 47 µM in the series on H460 (setting [7]), 0.7 µM in the series on H460 (setting [8]), > 300 µM in the series on HT29 (read-out: 2 hr Air HT29 IC50) and 6.8 µM with HT29 (read-out: 2 hr N2 HT29 IC50). Moreover, in the series with HT29, the “HT29 HCR: Air/N2” value is given as >44. In the series “in vivo”, this compound yielded an MTD of 20 mg/kg. Further, the “tumor growth delay to 500 mm^3” value in series [1] stood at 10 days.

In the case of `O=[N+]([O-])c1sccc1C(Cc1ccc(OCCO)nc1)S(=O)(=O)Oc1ccc(N(CCCl)CCCl)cc1` (stereo not drawn) [TH-1315, 3-(4-(N,N-bis-(2-Chloroethyl)amino)phenoxysulfonyl-(2-(2-hydroxyethoxy)pyridin-5-yl-methyl))methyl-2-nitrothiophene], the “tumor growth delay to 500 mm^3” value in series [2] (ip, 50 mg/kg) worked out at 6 days; in series [1] it was 19 days. Moreover, the “H460 HCR: Air/N2” value in the series with H460 is on record as 142. In addition, the IC50 with H460 (setting [7]) was 99.5 µM; in the series with H460 (setting [8]) it was 0.7 µM; in the series with HT29 (read-out: 2 hr Air HT29 IC50), > 300 µM; in the series with HT29 (read-out: 2 hr N2 HT29 IC50) it was 13 µM. In addition, the “HT29 HCR: Air/N2” value with HT29 is >23. Besides, the MTD in “in vivo” came out at 50 mg/kg.

`O=[N+]([O-])c1sccc1C(Cc1cccnc1)S(=O)(=O)Oc1ccc(N(CCCl)CCCl)cc1` (stereo not drawn) [TH-1331, 3-(4-(N,N-bis-(2-Chloroethyl)amino)phenoxysulfonyl-(pyridin-3-yl-methyl))methyl-2-nitrothiophene]: in the series on H460, the “H460 HCR: Air/N2” value was 69. In addition, the IC50 with H460 (setting [7]) was found to be 103 µM; in the series with H460 (setting [8]), 1.5 µM; with HT29 (read-out: 2 hr Air HT29 IC50) it was 166 µM; in the series with HT29 (read-out: 2 hr N2 HT29 IC50), 11 µM. Besides, in the series on HT29, the “HT29 HCR: Air/N2” value was 15. The MTD in “in vivo” worked out at 60 mg/kg. The “tumor growth delay to 500 mm^3” value in series [1] was 11 days and 10 days.

Take `O=C(CO)Nc1ccc(CC(c2ccsc2[N+](=O)[O-])S(=O)(=O)Oc2ccc(N(CCCl)CCCl)cc2)cn1` (stereo not drawn) [TH-1354, 3-(4-(N,N-bis-(2-Chloroethyl)amino)phenoxysulfonyl-(2-(hydroxyacetylamino)pyridin-5-yl-methyl))methyl-2-nitrothiophene]: the “H460 HCR: Air/N2” value in the series on H460 is 65. For the same compound, the IC50 is 156 µM with H460 (setting [7]), 2.4 µM with H460 (setting [8]), 660 µM in the series on HT29 (read-out: 2 hr Air HT29 IC50) and 20 µM in the series on HT29 (read-out: 2 hr N2 HT29 IC50). The “HT29 HCR: Air/N2” value in the series on HT29 came to 33. Besides, the MTD in the series “in vivo” came out at 40 mg/kg. Besides, the “tumor growth delay to 500 mm^3” value in series [1] was 15 days and 12 days.

`Cn1cncc1CC(c1ccsc1[N+](=O)[O-])S(=O)(=O)Oc1ccc(N(CCCl)CCCl)cc1` (stereo not drawn) [TH-1365]: the “H460 HCR: Air/N2” value in the series on H460 came to 33. Further, the concentration for half-maximal inhibition (IC50) in the series on H460 (setting [7]) is 23 µM; in the series with H460 (setting [8]), 0.7 µM; in the series with HT29 (read-out: 2 hr Air HT29 IC50), 270 µM; with HT29 (read-out: 2 hr N2 HT29 IC50), 11 µM. In addition, the “HT29 HCR: Air/N2” value with HT29 amounted to 25. The same compound showed an MTD in the series “in vivo” of 10 mg/kg. Moreover, in series [1], the “tumor growth delay to 500 mm^3” value came out at 10 days.

Consider `COCC(=O)Nc1ccc(CC(c2ccsc2[N+](=O)[O-])S(=O)(=O)Oc2ccc(N(CCCl)CCCl)cc2)cc1` (stereo not drawn) [TH-1479], for which the “H460 HCR: Air/N2” value in the series with H460 is given as 325. Further, the IC50 with H460 (setting [7]) was 260 µM; in the series with H460 (setting [8]) it was 0.8 µM; with HT29 (read-out: 2 hr Air HT29 IC50) it was > 300 µM; in the series with HT29 (read-out: 2 hr N2 HT29 IC50) it was 110 µM. The “HT29 HCR: Air/N2” value in the series with HT29 is 2.7.

Take `O=[N+]([O-])c1sccc1C(Cc1ccc(O[C@H]2CCCC[C@@H]2O)nc1)S(=O)(=O)Oc1ccc(N(CCCl)CCCl)cc1` (stereo partly drawn) [TH-1487]: in the series on H460, the “H460 HCR: Air/N2” value was determined as 64. In addition, the IC50 with H460 (setting [7]) amounted to 51 µM; in the series on H460 (setting [8]), 0.8 µM; in the series with HT29 (read-out: 2 hr Air HT29 IC50), 240 µM; in the series with HT29 (read-out: 2 hr N2 HT29 IC50), 280 µM. For the same compound, the “HT29 HCR: Air/N2” value in the series on HT29 came out at 1.

Turning to `O=[N+]([O-])c1sccc1C(COC1CCCCC1)S(=O)(=O)Oc1ccc(N(CCCl)CCCl)cc1` (stereo not drawn) [TH-1521], the “H460 HCR: Air/N2” value in the series with H460 was determined as 180. For the same compound, the IC50 is 234 µM with H460 (setting [7]), 1.3 µM with H460 (setting [8]), > 300 µM in the series with HT29 (read-out: 2 hr Air HT29 IC50) and 93 µM with HT29 (read-out: 2 hr N2 HT29 IC50). Moreover, in the series on HT29, the “HT29 HCR: Air/N2” value is on record as >3.2.

In the case of `CCN(CC)CC#CCC(c1ccsc1[N+](=O)[O-])S(=O)(=O)Oc1ccc(N(CCCl)CCCl)cc1` (stereo not drawn) [TH-1545], the “H460 HCR: Air/N2” value with H460 stood at 51. Moreover, the IC50 was 102 µM in the series on H460 (setting [7]), 2 µM in the series on H460 (setting [8]), 60 µM in the series with HT29 (read-out: 2 hr Air HT29 IC50) and 5 µM in the series on HT29 (read-out: 2 hr N2 HT29 IC50). In addition, the “HT29 HCR: Air/N2” value in the series with HT29 is 12.

For the compound `COc1cccc2c1C(=O)c1c(O)c3c(c(O)c1C2=O)C[C@@](O)(C(=O)CO)C[C@@H]3O[C@H]1C[C@H](N)[C@H](O)[C@H](C)O1` [doxorubicin, reference compound], the “tumor growth delay to 500 mm^3” value in series [2] was found to be 10 days.
